Source: patent US20050148673A1, “Prolonged administration of NMDA antagonist and safener drug to alter neuropathic pain condition” (priority 2002, published 2005)

How the values were obtained:
[1] = tested on: patients with CRPS-Type 1 (RSD) neuropathic pain; test: Prolonged continuous intravenous ketamine infusion with clonidine and MgSO4 in U.S. patients with CRPS-Type 1 (RSD); assay type: in vivo, human
Protocol: Roughly 2 hours before ketamine infusion begins, the patient should be given an oral dose of a “safener drug” that can reduce or eliminate the risks of any neurotoxic side effects that might otherwise be caused by continuous prolonged administration of the ketamine. […] As an additional benefit, clonidine (and various other alpha-2 adrenergic agonist drugs) can also help reduce blood pressure. This is useful, when used in conjunction with ketamine, since elevated blood pressure can be a side effect of ketamine, due to certain activities involving the sympathetic nervous system and the release of catecholamines.
In the treatments disclosed herein, clonidine tablets containing 0.1 or 0.2 mg were administered orally, every 8 to 12 hours, with good results. […] The transdermal form of clonidine (i.e., using skin patches) has also been used, with good results.
Beginning roughly 2 hours before the ketamine infusion is commenced (this can be done conveniently at the same time when the first clonidine tablet is taken), the patient should also be administered magnesium, preferably by intravenous infusion of a water-soluble salt, such as magnesium sulfate or chloride. This can be done by dissolving 2 grams of MgSO4 in 250 milliliters of 5% dextrose in water (abbreviated as D5W) and infusing the liquid into the patient over a period of about 2 hours.
A second infusion of 2 grams of MgSO4 should be administered roughly 24 hours later. This can be repeated each day, if desired, if the patient has not yet achieved complete cessation of the chronic pain; however, in the treatments completed to date, it has never been provided more than 3 times.
As soon as the initial magnesium infusion (which takes about 2 hours) has been completed, the patient is ready for the ketamine infusion to begin. In the treatments described herein, since these were done without being able to rapidly determine ketamine concentrations in blood, each patient was individually “titered”, by testing a series of gradually increasing dosages until a “maximum tolerated dosage” was reached and determined.
This typically was done by starting each patient at an initial dosage of 10 mg per hour, and then evaluating the patient every 2 hours after that, to see whether the dosage should be increased by another 5 or 10 mg/hr. When a patient began showing or reporting substantial CNS effects (such as feeling drunk, slurring of speech, semi-hallucinatory thoughts or visions, etc.), it was presumed that the maximum tolerated dosage had been reached or slightly passed, and the dosage was decreased slightly (such as by 5 or 10 mg/hr, depending on how well the reported pain levels were decreasing).
Four other patients who had suffering from CRPS type 1 for at least two years were subsequently treated in the U.S. Because of patient privacy concerns, the details of their condition cannot be disclosed herein. Typical treatments for these patients commenced with 2 grams of MgSO4 (infused in 5% dextrose in water, or D5W) and 1 or 2 tablets of 0.1 mg clonidine, two or three times per day as tolerated, commencing at least an hour prior to the first ketamine infusion. Throughout the treatment, patients continued to receive 1 or 2 tablets of clonidine 2 to 3 times per day, as tolerated, and a second magnesium infusion was performed in some patients at 24 hr.

[2] = tested on: patients with chronic neuropathic pain; test: Prolonged infusions of ketamine without any safener drug or magnesium, patients treated in Australia; assay type: in vivo, human
Source text: About 30 patients have been treated during the span of 1997 through 2002, in Australia, by one of the Inventors herein (Correll), using prolonged infusions of ketamine without any safener drug or magnesium. […] Those patients have been described in more detail in Correll et al 2004, and more current information on the duration of remission are provided in FIGS. 1 and 2 of that report. That report is not prior art against this invention.

[3] = tested on: patients with post-herpetic neuralgia; conditions: cited from earlier work; for patients in whom side effects were observed: single intravenous injection, of 8 patients (ketamine 0.15 mg/kg, morphine 0.075 mg/kg), Eide et al 1994
[4] = Ketamine and norketamine concentrations in blood plasma during infusion; assay type: in vivo, human
Protocol: Blood samples were taken from each patient during his or her infusion regimen, and those samples were shipped to an analytical laboratory (National Medical Services Company, in Willow Grove, Pa.) to have their ketamine concentrations analyzed. […] In view of those data, it is believed that blood plasma concentrations of at least about 200 ng/ml (and preferably at least about 250 to about 350 ng/ml) should be regarded as target levels for effective treatments.

[5] = tested on: patients with post-herpetic neuralgia (shingles); test: Ketamine treatment of patients with post-herpetic neuralgia (shingles); assay type: in vivo, human
Protocol: Several patients were also treated who suffered from post-herpetic neuralgia (commonly known as shingles).

NMDA receptors = conditions: cited from earlier work

Row | SMILES | reported pain level ([1]; FIG. 1 patient, baseline 8, after 24 hours of ketamine infusion (plateau)) | duration of apparently complete relief ([1]; FIG. 1 patient, one of four further CRPS type 1 patients) | reported pain level ([1]; FIG. 1 patient, within about 3 hours after second MgSO4 infusion commencing at 24 hours, ketamine continued) | duration of apparently complete remission ([1]; first patient treated in the U.S.) | pain relief outcome ([1]; one of four further CRPS type 1 patients, appears permanent as of filing date) | level to which pain returned, relative to pretreatment level ([1]; one of two patients with low ketamine plasma concentrations) | level to which pain returned ([1]; other of two patients with low ketamine plasma concentrations) | overall result ([2]; ketamine alone, about 30 patients) | patients believed to remain generally pain-free or in partial remission ([2]; of about 30 patients treated 1997 through 2002, ketamine alone) | patients in whom side effects were observed [3] [patients] | tolerability ([3]; subcutaneous administration over a continuous span of 7 days, 5 patients, Eide et al 1995) | blood plasma concentration of ketamine in the two patients without complete and long-lasting relief ([4]; did not reach or even closely approach this level) [µg/mL] | blood plasma concentration of ketamine that appeared to provide the best results ([4]; plasma, during infusion) | outcome in certain other patients [5] | outcome in one patient [5] | effectiveness relative to ketamine in reducing pain signals (NMDA receptors) | effectiveness relative to ketamine in suppressing activity at NMDA receptors (NMDA receptors) | level of norketamine in blood ([4]; one patient with return of pain)
1 | CNC1(c2ccccc2Cl)CCCCC1=O (racemic) [ketamine] | about 1.3 | roughly six | zero | about 18 months | apparently complete relief | roughly 50% | roughly the same starting level that existed prior to treatment | generally good results | more than 25 patients | 8 | associated with intolerable side effects | < 0.3 | greater than 250 ng/ml | transitory and partial benefits | essentially complete remission | – | – | –
2 | CN1CC[C@]23c4c5ccc(O)c4O[C@H]2[C@@H](O)C=C[C@H]3[C@H]1C5 [morphine] | – | – | – | – | – | – | – | – | – | 6 | – | – | – | – | – | – | – | –
3 | NC1(c2ccccc2Cl)CCCCC1=O (stereo not shown) [norketamine] | – | – | – | – | – | – | – | – | – | – | – | – | – | – | – | about 25% | about 25% | high level
